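Tested at 5 concentrations; 48 h exposure; 96-well plates; endpoints linearly interpolated, else capped at highest concentration. GI50: concentration for 50% inhibition of growth.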 Activity calls are given as the source filed them. Cut-off read from the data, not from the text of the source: active = GI50 up to about 1.1 µM and inactive = higher.
Experiments:
Assay in all cases: NCI-60 cell line screen, 48 h
A549 = tested on: A549
SK-MEL-2 = tested on: SK-MEL-2
M14 = tested on: M14
DU-145 = tested on: DU-145
K562 = tested on: K562
BT-549 = tested on: BT-549
TK-10 = tested on: TK-10
UACC-257 = tested on: UACC-257
SF-295 = tested on: SF-295
HOP-62 = tested on: HOP-62
MDA-N = tested on: MDA-N
NCI-H23 = tested on: NCI-H23
A498 = tested on: A498
MDA-MB-231 = tested on: MDA-MB-231
T47D = tested on: T47D
MDA-MB-435 = tested on: MDA-MB-435
KM12 = tested on: KM12
UACC-62 = tested on: UACC-62
SK-MEL-28 = tested on: SK-MEL-28
786-0 = tested on: 786-0
OVCAR-8 = tested on: OVCAR-8
HCC 2998 = tested on: HCC 2998
OVCAR-4 = tested on: OVCAR-4
SF-539 = tested on: SF-539
SN12C = tested on: SN12C
Malme-3M = tested on: Malme-3M
SNB-19 = tested on: SNB-19
NCI-H226 = tested on: NCI-H226
LOX IMVI = tested on: LOX IMVI
NCI/ADR-RES = tested on: NCI/ADR-RES
Hs-578T = tested on: Hs-578T
CCRF-CEM = tested on: CCRF-CEM
SF-268 = tested on: SF-268
COLO 205 = tested on: COLO 205
SW-620 = tested on: SW-620
RPMI-8226 = tested on: RPMI-8226
HCT-116 = tested on: HCT-116
NCI-H522 = tested on: NCI-H522
U-251 = tested on: U-251
PC-3 = tested on: PC-3
ACHN = tested on: ACHN
UO-31 = tested on: UO-31
HCT-15 = tested on: HCT-15
MCF7 = tested on: MCF7
CAKI-1 = tested on: CAKI-1
IGROV-1 = tested on: IGROV-1
RXF 393 = tested on: RXF 393
SK-MEL-5 = tested on: SK-MEL-5
SNB-75 = tested on: SNB-75
NCI-H460 = tested on: NCI-H460
OVCAR-3 = tested on: OVCAR-3
SK-OV-3 = tested on: SK-OV-3
HL-60 = tested on: HL-60
HOP-92 = tested on: HOP-92
SR = tested on: SR
OVCAR-5 = tested on: OVCAR-5
MOLT-4 = tested on: MOLT-4
EKVX = tested on: EKVX

`Nc1c(OCC(=O)O)ccc2cc(S(=O)(=O)O)ccc12` was tested, and the GI50 (A549) was > 100 µM (inactive), the GI50 (SK-MEL-2) was > 100 µM (inactive) and the GI50 (M14) was > 100 µM (inactive). The GI50 (DU-145) was > 100 µM (inactive), the GI50 (K562) was > 100 µM (inactive) and the GI50 (BT-549) was > 100 µM (inactive). The GI50 (TK-10) was > 100 µM (inactive), the GI50 (UACC-257) was > 100 µM (inactive) and the GI50 (SF-295) was > 100 µM (inactive). The GI50 (HOP-62) was > 100 µM (inactive), the GI50 (MDA-N) was > 100 µM (inactive) and the GI50 (NCI-H23) was > 100 µM (inactive). The GI50 (A498) was > 100 µM (inactive), the GI50 (MDA-MB-231) was > 100 µM (inactive) and the GI50 (T47D) was > 100 µM (inactive). The GI50 (MDA-MB-435) was > 100 µM (inactive), the GI50 (KM12) was > 100 µM (inactive) and the GI50 (UACC-62) was > 100 µM (inactive). The GI50 (SK-MEL-28) was > 100 µM (inactive), the GI50 (786-0) was > 100 µM (inactive) and the GI50 (OVCAR-8) was > 100 µM (inactive). The GI50 (HCC 2998) was > 100 µM (inactive), the GI50 (OVCAR-4) was > 100 µM (inactive) and the GI50 (SF-539) was > 100 µM (inactive). For the same compound, the GI50 (SN12C) was > 100 µM (inactive), the GI50 (Malme-3M) was > 100 µM (inactive) and the GI50 (SNB-19) was > 100 µM (inactive). For the same compound, the GI50 (NCI-H226) was > 100 µM (inactive), the GI50 (LOX IMVI) was > 100 µM (inactive) and the GI50 (NCI/ADR-RES) was > 100 µM (inactive). The GI50 (Hs-578T) was > 100 µM (inactive), the GI50 (CCRF-CEM) was > 100 µM (inactive) and the GI50 (SF-268) was > 100 µM (inactive). For the same compound, the GI50 (COLO 205) was > 100 µM (inactive), the GI50 (SW-620) was > 100 µM (inactive) and the GI50 (RPMI-8226) was > 100 µM (inactive). For the same compound, the GI50 (HCT-116) was > 100 µM (inactive), the GI50 (NCI-H522) was > 100 µM (inactive) and the GI50 (U-251) was > 100 µM (inactive). For the same compound, the GI50 (PC-3) was > 100 µM (inactive), the GI50 (ACHN) was > 100 µM (inactive) and the GI50 (UO-31) was > 100 µM (inactive). The GI50 (HCT-15) was over 100 µM, the GI50 (MCF7) was > 100 µM (inactive) and the GI50 (CAKI-1) was > 100 µM (inactive). The GI50 (IGROV-1) was > 100 µM (inactive), the GI50 (RXF 393) was > 100 µM (inactive) and the GI50 (SK-MEL-5) was > 100 µM (inactive). The GI50 (SNB-75) was > 100 µM (inactive), the GI50 (NCI-H460) was > 100 µM (inactive) and the GI50 (OVCAR-3) was > 100 µM (inactive). The GI50 (SK-OV-3) was > 100 µM (inactive) and the GI50 (HL-60) was > 100 µM (inactive).
In the case of `CCOP(=O)(CC1OC(CO)C(O)C1O)OCC` (stereo not drawn), the GI50 (A549) is reported as > 100 µM (inactive), the GI50 (SK-MEL-2) is reported as > 100 µM (inactive) and the GI50 (M14) is reported as > 100 µM (inactive). For the same compound, the GI50 (DU-145) was > 100 µM (inactive), the GI50 (HOP-92) was > 100 µM (inactive) and the GI50 (K562) was > 100 µM (inactive). For the same compound, the GI50 (BT-549) was > 100 µM (inactive), the GI50 (TK-10) was > 100 µM (inactive) and the GI50 (UACC-257) was > 100 µM (inactive). The GI50 (SF-295) was > 100 µM (inactive), the GI50 (HOP-62) was > 100 µM (inactive) and the GI50 (SR) was > 100 µM (inactive). For the same compound, the GI50 (OVCAR-5) was > 100 µM (inactive), the GI50 (MDA-N) was > 100 µM (inactive) and the GI50 (NCI-H23) was > 46.7 µM (inactive). The GI50 (A498) was > 100 µM (inactive), the GI50 (MDA-MB-231) was > 100 µM (inactive) and the GI50 (T47D) was > 100 µM (inactive). The GI50 (MDA-MB-435) was > 100 µM (inactive), the GI50 (KM12) was > 100 µM (inactive) and the GI50 (UACC-62) was > 100 µM (inactive). The GI50 (SK-MEL-28) was > 100 µM (inactive), the GI50 (786-0) was > 100 µM (inactive) and the GI50 (HCC 2998) was > 100 µM (inactive). For the same compound, the GI50 (OVCAR-4) was > 100 µM (inactive), the GI50 (SF-539) was > 100 µM (inactive) and the GI50 (SN12C) was > 100 µM (inactive). For the same compound, the GI50 (Malme-3M) was > 100 µM (inactive), the GI50 (SNB-19) was > 100 µM (inactive) and the GI50 (LOX IMVI) was > 100 µM (inactive). The GI50 (Hs-578T) was > 100 µM (inactive), the GI50 (CCRF-CEM) was > 100 µM (inactive) and the GI50 (SF-268) was > 100 µM (inactive). The GI50 (COLO 205) was > 100 µM (inactive), the GI50 (SW-620) was > 100 µM (inactive) and the GI50 (RPMI-8226) was > 100 µM (inactive). The GI50 (HCT-116) was > 100 µM (inactive), the GI50 (NCI-H522) was > 100 µM (inactive) and the GI50 (MOLT-4) was > 100 µM (inactive). The GI50 (U-251) was > 100 µM (inactive), the GI50 (PC-3) was > 100 µM (inactive) and the GI50 (ACHN) was > 100 µM (inactive). For the same compound, the GI50 (EKVX) was > 100 µM (inactive), the GI50 (UO-31) was > 100 µM (inactive) and the GI50 (HCT-15) was over 100 µM. The GI50 (MCF7) was > 100 µM (inactive), the GI50 (CAKI-1) was > 100 µM (inactive) and the GI50 (IGROV-1) was > 100 µM (inactive). For the same compound, the GI50 (RXF 393) was > 100 µM (inactive), the GI50 (SK-MEL-5) was > 100 µM (inactive) and the GI50 (SNB-75) was > 100 µM (inactive). The GI50 (NCI-H460) was > 100 µM (inactive), the GI50 (OVCAR-3) was > 100 µM (inactive) and the GI50 (SK-OV-3) was > 100 µM (inactive). For the same compound, the GI50 (HL-60) was > 100 µM (inactive).

Source: ChEMBL document CHEMBL1201862, “PubChem BioAssay data set” (2004)
